Consider one compound from patent publication US11311576B2, “Methods of use for CAR T cells” (Seattle Children's Hospital, priority 2018, dated 2022).

SMILES strings stand for the structures.

What is called Kd is the equilibrium constant for the complex coming apart.

The subject of one data set is E2-CAR-T cells. Put plainly: 3H-EC17 uptake by E2-CAR-T cells. The following applies: read-out: Kd of 3H-EC17 (estimated); unsorted E2-CAR-T cells (~24% EGFRt+, ~95:5 CD8/CD4), 2 hour at room temperature. It is filed as binding, human. An excerpt: (calculated from the numbers of molecules bound per cell).
Principle Components of CAM Controlled CAR T Cell Therapy. The basic components of the CAR-T cell therapy involve FITC as the pseudo tumor antigen, the high affinity EC17 CAM (a CAM is equivalent to a bridge or the “compound” in this application), and a rationally designed anti-FITC CAR and CAR-modified T cells. The EC17 has already been tested in the clinic for immunotherapy and optical imaging purposes. To directly quantify its bispecific binding affinities, ^3H-EC17 was synthesized and radioligand binding assays were carried out on KB and CHO-β cell lines representing FRα+ and FRβ+ target cells, respectively, and on unsorted EGFRt CAR-T cells representing the effector cells.

For the next data set, the system named is HOS-143b. Put plainly: Specific lysis at varying E/T ratios with 10 nM EC17, FR-negative cells. In kind it is cell-based, human. The following applies: 10 nM EC17, E2-CAR-T cells, 48 hours of co-culture. The protocol: After 24 hours of co-culture, supernatants were harvested to determine tumor cell killing. To study the kinetics of T cell activation and FR correlation in vitro (FIG. 60A, FIG. 60B, FIG. 60C, FIG. 60D, FIG. 60E), co-cultures were carried out in FR+/− cell lines at varying E/T ratios (1:27, 1:9, 1:3, 1:1, 3:1) in the continuous presence of 10 nM EC17. The kinetics of tumor cell killing were quantified after 16 and 48 hours of co-culture. Meanwhile, a portion of the supernatants was taken after 44 hours of co-culture for measurement of IFNg, IL-2 and TNFα. Using Promega's CytoTox 96® LDH assay kit, target cell killing was quantified and expressed as specific lysis (%) which was normalized to basal levels in the absence of EC17 at defined E/T ratios. The LEGENDplex™ human Th1 cytokine panel (BioLegend, San Diego, Calif.) was used to determine CAR-T cell derived cytokines.
Specific lysis (%) was quantified after 16 and 48 hours of co-culture, and Th1 cytokines (IFNg, TNFa) in culture media were measured after 44 hours of co-culture. […] It generally took a longer time (48 hours) and a higher E/T ratio (≥1:1) to see significant activity in the lowest FR-expressing OV90 cells (FIG. 60A). The high FR-expressing KB cells responded very slowly and also required a higher E/T ratio (≥1:3) and longer exposure time to cause significant cell death (FIG. 60B, left plot).

The test system of another data set is HOS-FRα tumor. The experiment in a line: CRS toxicity and sodium fluorescein rescue in HOS-FRα tumor-bearing mice. It is filed as in vivo. Particulars: ~2.5 million CD8 and ~33 million CD4 E2 CAR-T cells; days 4 and 11, after EC17 500 and 100 nmol/kg on days 3 and 10. How it is done: All animal care and use were performed according to NIH guidelines and in compliance with protocols approved by the Purdue University Animal Use and Care Committee. Female 4 to 5-week-old NOD/SCID gamma (NSG™) mice (stock number: 005557) were purchased from The Jackson Laboratory (Bar Harbor, Me.). Unless specifically indicated, all animals were maintained on a FA-deficient diet (TestDiet, St. Louis, Mo.) upon arrival and throughout the study. To establish subcutaneous xenografts, MDA-MB-231 and HOS-FRα were implanted in the right flank region at 2.5×10^6 and 1×10^6 cells per animal, respectively. For intravenous xenografts, THP1-FRb cells were inoculated at 5×10^6 cells per animal. Subcutaneous tumors were measured 2-3 times per week with a caliper and calculated using the ellipsoidal formula […]. […] All animal doses (CAR-T cells, EC17, sodium fluorescein) were given intravenously.
Depending on the CAR-T cell dose and how EC17 is administered, tumor-bearing mice receiving FITC-specific CAR-T cells can experience severe CRS and varying degrees of body weight loss. […] On the days immediately following each EC17 dose, animals were scored and rescue agents such as sodium fluorescein, folic acid and leucovorin were used to mitigate CRS toxicity. […]

Take `NC1=NC2N=CC(CNc3ccc(C(=O)N[C@@H](CCC(=O)NCCNC(=S)Nc4ccc(-c5c6ccc(=O)cc-6oc6cc(O)ccc56)c(C(=O)O)c4)C(=O)O)cc3)=NC2C(=O)N1` (stereo partly drawn) [EC17, FA-(g)-ethylenediamine-FITC]: the Kd in the data set with E2-CAR-T cells was about 130 nM. In addition, the “specific lysis of FR-negative cells” value in the data set on HOS-143b is recorded as “essentially unharmed”. Moreover, the CRS grade in the data set on HOS-FRα tumor is 1-2.
